# Laboratory results taken from patent US20140051662A1 (priority 2011, published 2014).
# Read-outs that look alike come from different tables or passages of the source.
# What was measured:
# [1] = test system: FGFR3 expressing Ba/F3 cells; experiment: proliferation of FGFR3 expressing Ba/F3 cells; format: cell-based, mouse; conditions: FIG. 1A, dose-dependent
# Procedure: (§1) [6-^3H] thymidine (Amersham Biosciences, UK) was added (1 μCi/well) for 16 hours. Thymidine incorporation was measured by liquid scintillation counting (Wallace, PerkinElmer). All experiments were performed in triplicate.
# [2] = test system: intracellular domain of FGFR3; experiment: tyrosine phosphorylation in Ba/F3 cells (Western), FGFR3; format: cell-based, human; conditions: masitinib 1 μM, 10 ng/ml FGF
# intrinsic PDGF receptor = experiment: tyrosine phosphorylation in Ba/F3 cells (Western), PDGF receptor positive control; format: cell-based; conditions: FIG. 1B
# [3] = test system: LP1 cells (t(4;14) positive); experiment: thymidine proliferation assay, LP1; format: cell-based, human
# Procedure: (§2) Multiple myeloma cell lines RPMI 8226, U266 (t(4;14) negative) and OPM2, LP1, NCI-H929 (t(4;14) positive) were cultured in RPMI medium (Gibco-BRL) supplemented with 10% fetal calf serum (FCS, Life Technologies), 100 units/ml penicillin, 100 μg/ml streptomycin, except LP1 which were cultured in DMEM (Gibco-BRL). Bone marrow plasma cells were CD138-selected using MACS systems (Miltenyi Biotec, Germany). […] [6-^3H] thymidine (Amersham Biosciences, UK) was added (1 μCi/well) for 16 hours. Thymidine incorporation was measured by liquid scintillation counting (Wallace, PerkinElmer). All experiments were performed in triplicate.
# [4] = test system: NCI-H929 cells (t(4;14) positive); experiment: thymidine proliferation assay, NCI-H929; format: cell-based; conditions: Homo sapiens
# Procedure: as §2
# [5] = test system: RPMI 8226 cells (t(4;14) negative); experiment: thymidine proliferation assay, RPMI 8226; format: cell-based, human
# Procedure: as §2
# [6] = test system: U266 cells (t(4;14) negative); experiment: thymidine proliferation assay, U266; format: cell-based, human
# Procedure: as §2
# [7] = test system: OPM2 cells (t(4;14) positive); experiment: thymidine proliferation assay, OPM2; format: cell-based, human
# Procedure: as §2
# [8] = test system: fresh plasma cells from patients with t(4;14) multiple myeloma expressing FGFR3; experiment: proliferation of fresh plasma cells from patients; format: cell-based, human
# Procedure: as §1, with “Bone marrow plasma cells were CD138-selected using MACS systems (Miltenyi Biotec, Germany). […] [6-^3H]” for “[6-^3H]”
# [9] = test system: patients with relapsing or refractory multiple myeloma; experiment: open-label phase 2 study, masitinib plus bortezomib/dexamethasone (VD); format: in vivo, human
# Excerpt: Initially, this study was to investigate the safety and efficacy of masitinib administered in combination with the chemotherapy regimens of masitinib plus (dexamethasone/bortezomib/thalidomide); or masitinib plus (dexamethasone/bortezomib/adriamycin). However, after early preliminary results both these latter arms were eliminated from the study due to a tendency of higher incidence of adverse events or because these were not considered a gold standard treatment in this pathology. […] Velcade: 1.3 mg/m^2 intravenously; Level 1: Days 1 and 4; Level 2: Days 1, 4, 8 and 11 Dexamethasone: 40 mg/day, orally; Level 1: Days 1 to 4; Level 2: Days 1 to 4, 8 and 11 Adriamycin: 9 mg/m2 intravenously (bolus or perfusion); Days 1 to 4 Thalidomide: 200 mg/day, orally, once daily in the evening […] The two dosing regimens of the bortezomib plus dexamethasone combination (VD) were successively tested. After the observation that a low level of VD was well tolerated in four patients, the following patients were treated at a higher level. Included were patients with refractory or relapsing multiple myeloma: • With t(4; 14) translocation regardless of FGFR3 status, i.e. expressing FGFR3 or not; • or without a t(4; 14) translocation and relapsing within 1 year after the first line therapy including or not bone marrow transplantation. All patients were to receive combination therapy for the planned number of cycles or until disease progression, after which they could continue with masitinib plus dexamethasone in an extension phase.
# Lyn = Lyn (Homo sapiens, UniProt P07948); experiment: inhibition of Lyn kinase
# Lyn, sequence (P07948 whole entry, species assumed): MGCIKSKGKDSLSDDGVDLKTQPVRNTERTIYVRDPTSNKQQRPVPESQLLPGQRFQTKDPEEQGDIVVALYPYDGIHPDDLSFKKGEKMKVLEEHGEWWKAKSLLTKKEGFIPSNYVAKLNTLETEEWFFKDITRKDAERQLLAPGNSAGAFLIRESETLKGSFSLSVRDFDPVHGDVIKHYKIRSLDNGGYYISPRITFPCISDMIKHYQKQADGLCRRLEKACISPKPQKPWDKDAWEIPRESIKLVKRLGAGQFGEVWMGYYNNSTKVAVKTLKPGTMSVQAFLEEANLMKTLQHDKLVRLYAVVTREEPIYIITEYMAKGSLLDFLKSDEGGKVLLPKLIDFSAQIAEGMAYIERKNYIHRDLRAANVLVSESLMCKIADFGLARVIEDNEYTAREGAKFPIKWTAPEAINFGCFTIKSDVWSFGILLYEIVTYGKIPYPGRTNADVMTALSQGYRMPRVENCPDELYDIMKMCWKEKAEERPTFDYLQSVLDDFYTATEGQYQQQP
# [10] = test system: patients with relapsed or refractory t(4;14) multiple myeloma
# [11] = test system: human cord blood mast cells; conditions: cited from earlier work
# [12] = 13 patients receiving VD as second line therapy (first relapse)
# [13] = cohort VD Level 2, two patients
# [14] = masitinib plus VD, all 17 patients
# [15] = beyond first relapse, aggressive relapse
# [16] = beyond first relapse, non-aggressive relapse
# [17] = masitinib plus dexamethasone combination therapy
# [18] = more than two previous lines (beyond first relapse)
# [19] = second line of treatment (first relapse)
compound,measurement,setting,value
"Cc1ccc(NC(=O)c2ccc(CN3CCN(C)CC3)cc2)cc1Nc1nc(-c2cccnc2)cs1 [masitinib, 4-(4-methylpiperazin-1-ylmethyl)-N-[4-methyl-3-(4-pyridin-3ylthiazol-2-ylamino)phenyl]benzamide]",growth of BaF3 cell expressing the intracellular kinase domain of FGFR3,[1],inhibited
same,phosphorylation of the intracellular domain of FGFR3,[2],inhibited
same,phosphorylation of the PDGF receptor,intrinsic PDGF receptor,Inhibition
same,inhibition at 2 µM,"[3]; Homo sapiens, LP-1",50%
same,anti-proliferative interaction with dexamethasone,"[3]; combination with dexamethasone, FGF-activated LP1",synergy
same,reduction of proliferation compared to dexamethasone alone,"[3]; masitinib added to dexamethasone, 5 times less dexamethasone, FGF-activated LP1",2 fold
same,inhibition at 2 µM,[4],50%
same,effect on proliferation,[5],no effect
same,proliferation,"[6]; U266, t(4;14) negative",significantly and dose-dependently decreased
same,anti-proliferative interaction with dexamethasone,"[6]; combination with dexamethasone, U266",synergy
same,reduction of proliferation compared to dexamethasone alone,"[6]; masitinib added to dexamethasone, 5 times less dexamethasone, U266",7 fold
same,anti-proliferative interaction with dexamethasone,[7]; combination with dexamethasone,synergy
same,reduction of proliferation compared to dexamethasone alone,"[7]; masitinib added to dexamethasone, 5 times less dexamethasone",2 fold
same,proliferation,[8],inhibited
same,Median PFS,[9]; 4 patients treated at level 1,2.9 months
same,Median OS,[9]; [12],22.3 months
same,Median PFS,[9]; [12],9.3 months
same,Median PFS,[9]; 13 patients treated at level 2,7.4 months
same,Median overall survival (OS),[9]; 13 patients treated at level 2,20.0 months
same,patients with best response of partial response,"[9]; VD as second line therapy, eleven of 12",92%
same,Median overall survival (OS),[9]; all patients,18.1 months
same,grade 4 adverse event suspected to be treatment-related,[9]; cohort VD Level 1,No grade 4 adverse event
same,patients with at least one AE suspected to be treatment-related,"[9]; cohort VD Level 1, 4 patients",All patients
same,patients with at least one AE suspected to be treatment-related,"[9]; cohort VD Level 2, 8 of 13 patients",62%
same,patients with a grade 3 AE suspected to be treatment-related,[9]; [13],15%
same,patients with at least one grade 4 AE suspected to be treatment-related,[9]; [13],15%
same,patients still alive at the cut-off date,"[9]; five of 17 VD patients, 31 Mar. 2010",29%
same,patients with a very good partial response,[9]; intent-to-treat population,five
same,response rate (complete response or partial response),[9]; intent-to-treat population,75%
same,patients with at least one AE suspected to be treatment-related,[9]; [14],71%
same,patients with at least one grade 4 AE suspected to be treatment-related,[9]; [14],12%
same,median progression free survival (PFS),[9]; overall VD population,7.4 months
same,response rate (complete response or partial response),[9]; per-protocol population,86%
same,Median OS,[9]; t(4;14) negative patients,25.3 months
same,Median PFS,[9]; t(4;14) negative patients,9.3 months
same,patients with best response of partial response,"[9]; t(4;14) negative patients, three of five",60%
same,Median OS,[9]; t(4;14) positive patients,17.1 months
same,Median PFS,[9]; t(4;14) positive patients,5.9 months
same,patients with best response of partial response,"[9]; t(4;14) positive patients, 8 out of 10",80%
same,concentrations at which the kinase is inhibited,Lyn,submicromolar
same,patients with rashes,[10]; 2 patients,8.3%
same,patients with suspected diarrhea,[10]; 10 patients,41.7%
same,patients with drug-related edema,[10]; 13 patients,54.2%
same,patients with nausea and/or vomiting,"[10]; 16 patients, suspected AE",66.7%
same,patients with suspected masitinib-related (or not assessable) adverse events,[10]; 21 of 24 patients,87.5%
same,"suspected masitinib-related (or not assessable) adverse events, total number",[10]; 24 patients,145
same,median overall survival,[10]; all 24 patients,19.8 months
same,median progression free survival (PFS),[10]; all 24 patients,3.9 months
same,survival,[10]; all patients with unsatisfactory response to previous treatment or in first relapse,at least 1 year
same,median overall survival,[10]; [15],8.1 months
same,median progression free survival (PFS),[10]; [15],2.1 months
same,median overall survival,[10]; [16],25.4 months
same,median progression free survival (PFS),[10]; [16],3.9 months
same,patients who discontinued because of AEs suspected to be masitinib-related,[10]; five patients,20.8%
same,patients with severe edema,[10]; in vivo,two
same,patients with severe nausea,[10]; in vivo,Three
same,patients with Minor Response,[10]; [17],5 patients
same,patients with very good partial response (IMWG criteria),[10]; [17],one
same,response in patients with aggressive relapse,[10]; [17],No response
same,median overall survival,[10]; [18],8.6 months
same,median progression free survival (PFS),[10]; [18],3.0 months
same,patients still alive after 2 years,[10]; overall,43.5%
same,median overall survival,[10]; [19],35.7 months
same,median progression free survival (PFS),[10]; [19],9.1 months
same,patients with at least one suspected masitinib-related (or not assessable) serious adverse event,[10]; seven patients,29.2%
same,patients with severe suspected adverse events (non-hematological grade 3/4),[10]; seven patients,29.2%
same,patients with acute renal failure,[10]; severe,two
same,FcεRI-mediated degranulation,[11],inhibition
